“And” between values parts separate entries of the source, which are not always exact repeats. Equal values may be shown once. “Also recorded” adds a separate entry of the source.
Assays:
mushroom TYR [1] = assay: Fluorescence quenching assay of TYR; format: binding, Agaricus bisporus; details: 310 K; for kq (bimolecular quenching rate constant): from Ksv with τ0 = 10^−8 s; for ka (binding constant): static quenching, double-log equation; for Ksv (Stern–Volmer quenching constant): λex 280 nm, pH 6.8
Experimental: The fluorescence quenching spectra were recorded with an excitation wavelength (λex = 280 nm) and excitation and emission slit widths of 5 nm. A potassium phosphate buffer (80 μL, 50 mM, pH 6.8), 20 μL of tyrosinase (100 units/mL), and 2 μL of the tested compounds (10–100 μM) dissolved in DMSO were added to 96-well plates. After incubating at 37 °C for 20 min, the fluorescence spectrum was recorded at an emission range from 315 to 415 nm. Fluorescence quenching is described by the Stern–Volmer equation [69]: F0/F=1+Kqτ0[Q]=1+ksv[Q]
For the static quenching interaction, the binding affinity (Ka) and the number of binding sites (n) between the inhibitor and TYR were determined using the following calculations:(1) logF0−F/F=nlogQ+logka where F and F0 represent the fluorescence intensities of protein in the presence and absence of a quencher, respectively. [Q] is the quencher concentration. Ksv is the Stern–Volmer quenching constant, and kq is the rate constant of the bimolecular quenching process. τ0 is the average fluorescence lifetime of the fluorophores in the absence of the quencher, with a typical value of 10^−8 s for biological macromolecules.

mushroom TYR [2] = assay: Inhibition of diphenolase activity of mushroom TYR (L-DOPA substrate); format: biochemical, Agaricus bisporus; details: for IC50: diphenolase activity, L-DOPA 2 mM, pH 6.8, 37 °C, read-out: IC50 against mushroom TYR catalyzing oxidation of L-DOPA; for Inhibitory activity on TYR (in words): discussion of Table 1, mushroom TYR
Experimental: The inhibitory effects of the thiosemicarbazone–CBD–aldehyde derivatives on the diphenolase activity of mushroom TYR were assessed by UV-Vis spectrometry using L-DOPA as the substrate.
A potassium phosphate buffer (80 μL, 50 mM, pH 6.8), 20 μL of tyrosinase (100 units/mL), and 2 μL of the tested compounds (10–150 μM) dissolved in dimethyl sulfoxide (DMSO) were added to 96-well plates. After incubation at 37 °C for 20 min, 100 μL of L-DOPA (2 mM) was added. The absorbance changes at 475 nm (ε = 3.7 × 10^3 M^−1cm^−1) were immediately monitored for 20 min at 37 °C using a Tecan Infinite 200 PRO plate reader. […] Dose–response curves were generated by conducting assays with increasing concentrations of each inhibitor. To ensure measurement accuracy, all experiments were performed in triplicate, with the average value used as the final result.

[3] = DPPH radical-scavenging assay; details: 100 μM DPPH in ethanol, 30 min at room temperature in the dark, absorbance 517 nm; mean ± SD
Experimental: The total antioxidant capacity of the synthesized compounds was determined using the DPPH radical as a reagent, according to the procedure described by Chang et al. with some modifications. Briefly, 100 μL of 100 μM solution of DDPH in ethanol was added to 10 μL of the synthesized compounds at different concentrations (500, 250, 125, 62.5, 31.25, 15.62, and 7.81 μM). […] The percentage of the inhibition of DPPH oxidation was calculated according to the following formula: DPPHscavengingeffect%=Acontrol−Asample/Acontrol×100 where Acontrol means the absorbance of the control sample and Asample means the absorbance of the standard or tested compound.

mushroom TYR [4] = assay: Monophenolase inhibition assay of mushroom TYR (L-tyrosine substrate), lag time; format: biochemical, Agaricus bisporus; details: oxidation of L-tyrosine by mushroom TYR; for Lag time: compound 20 μM, without inhibitor 4.40 min; for Lag phase: control 264 s
Experimental: Additionally, the impact of the newly synthesized compounds on the initial stage of TYR enzymatic activity was evaluated using L-tyrosine as the substrate. This initial phase is characterized by a lag period and an increased reaction rate.
[…] After incubation at 37 °C for 20 min, 100 μL of L-tyrosine (2 mM) was added. The absorbance changes at 475 nm were immediately monitored for 40 min at 37 °C using a Tecan Infinite 200 PRO plate reader. The lag time was determined from the plot of absorbance at 475 nm versus time (min) by extrapolating the linear portion of the curve to the x-axis.

[5] = Ferric-reducing antioxidant power (FRAP) assay; details: trolox equivalent; 45 min at 37 °C, absorbance 595 nm
Experimental: The antioxidant capacity of the synthesized compounds was evaluated by the reduction of the ferric 2,4,6-tripyridyl-s-triazine complex (Fe^3+-TPTZ) to the ferrous form (Fe^2+-TPTZ) at low pH, which causes a colored ferrous–tripyridyltriazine complex to form, according to the procedure described by Benzie et al., with some modifications. Briefly, 20 µL of the tested compound was mixed with 130 µL FRAP reagent (buffer acetate pH = 3.6, 10 mM TPTZ, 40 mM HCl, 20 mM FeCl3/H2O ratio 10:1:1) and then incubated for 45 min at 37 °C. FRAP values were obtained by comparing the absorbance change at 595 nm in test reaction mixtures with those containing ferrous ions in known concentrations using trolox as a calibration curve (concentrations between 7.8 and 500 µM). The results were expressed as μM of trolox equivalent (TE). The absorbance was measured using a Tecan Infinite 200 PRO plate reader.

mushroom TYR [6] = assay: Inhibition kinetics on diphenolase activity of TYR (Lineweaver–Burk); format: biochemical, Agaricus bisporus; details: Lineweaver–Burk plot, L-DOPA 0.1–1 mM, compound 2.5–30 μM
Experimental: The inhibition mechanism of compound 5 on the diphenolase activity of TYR was further studied. The inhibition type was determined by the classical Lineweaver–Burk plot based on the inhibitory results of 5.
To evaluate the inhibition kinetics of tyrosinase, assays were conducted in phosphate buffer (50 mM, pH 6.8) using L-DOPA as the substrate (0.1–1 mM) and tyrosinase ([…]) in the presence of varying concentrations of compound 5 (2.5–30 μM) under the same conditions as described in Section 4.4. Absorbance changes at 475 nm were continuously monitored for 40 min at 37 °C using a Tecan Infinite 200 PRO plate reader. Initial reaction velocities (V0) were determined for each inhibitor concentration, and kinetic parameters (Kₘ and Vₘₐₓ) were analyzed using Lineweaver–Burk and Michaelis–Menten plots to determine the type of inhibition. All experiments were performed in triplicate to ensure reproducibility.

For `C=C(C)[C@@H]1CCC(C)=C[C@H]1c1c(O)cc(CCCCC)c(/C=N/NC(=S)NC)c1O` [Compound 6, 3-(4-methyl-3-thiosemicarbazone)–CBD–aldehyde], the “kq (bimolecular quenching rate constant)” value (mushroom TYR [1]) was 9.98e+11 M⁻¹ s⁻¹, the “ka (binding constant)” value (mushroom TYR [1]) was 8700 M⁻¹ and the “Ksv (Stern–Volmer quenching constant)” value (mushroom TYR [1]) was 9980 M⁻¹. For the same molecule, the IC50 (mushroom TYR [2]) was 29.4 ± 2.22 µM, the IC50 [3] was 63.7 ± 3.29 µM and the Lag time (mushroom TYR [4]) was 6.06 min and 6.06 ± 0.11 min. It also gave a Lag phase (mushroom TYR [4]) of 363 s.
For `C=C(C)[C@@H]1CCC(C)=C[C@H]1c1c(O)cc(CCCCC)c(/C=N/NC(=N)N)c1O` [Compound 4], the IC50 (mushroom TYR [2]) was greater than 100 µM and the “Inhibitory activity on TYR (in words)” value (mushroom TYR [2]) was “did not exhibit any inhibitory activity”.
For `C=C(C)[C@@H]1CCC(C)=C[C@H]1c1c(O)cc(CCCCC)c(/C=N/NC(=S)Nc2ccccc2)c1O` [Compound 8, 3-(4-phenyl-3-thiosemicarbazone)–CBD–aldehyde], the “kq (bimolecular quenching rate constant)” value (mushroom TYR [1]) was 4.68e+12 M⁻¹ s⁻¹, the “ka (binding constant)” value (mushroom TYR [1]) was 25500 M⁻¹ and the “Ksv (Stern–Volmer quenching constant)” value (mushroom TYR [1]) was 46800 M⁻¹. The IC50 (mushroom TYR [2]) was 42.2 ± 3.52 µM, the FRAP value [5] was 931.7 ± 8.97 μM TE and the IC50 [3] was 57.6 ± 1.71 µM. The Lag time (mushroom TYR [4]) was 4.58 min and 4.58 ± 0.04 min and the Lag phase (mushroom TYR [4]) was 274 s.
For `Cc1c(C)c2c(c(C)c1O)CCC(C)(C(=O)O)O2` (stereo not shown) [trolox, reference compound], the IC50 [3] was 54.6 ± 3.45 µM.
`C=C(C)[C@@H]1CCC(C)=C[C@H]1c1c(O)cc(CCCCC)c(C=O)c1O` [Compound 2] gave an IC50 (mushroom TYR [2]) greater than 100 µM.
For `C=C(C)[C@@H]1CCC(C)=C[C@H]1c1c(O)cc(CCCCC)c(/C=N/NC(N)=S)c1O` [Compound 5, 3-thiosemicarbazone–CBD–aldehyde], the Inhibition type (mushroom TYR [6]) was “mixed-type inhibition; also recorded: reversible, mixed-type inhibitor”, the “kq (bimolecular quenching rate constant)” value (mushroom TYR [1]) was 7.61e+11 M⁻¹ s⁻¹ and the “ka (binding constant)” value (mushroom TYR [1]) was 12100 M⁻¹. The “Ksv (Stern–Volmer quenching constant)” value (mushroom TYR [1]) was 7610 M⁻¹, the IC50 (mushroom TYR [2]) was 27.7 ± 1.84 µM and the FRAP value [5] was 1257 ± 6.78 μM TE. The IC50 [3] was 53.5 ± 5.29 µM, the Lag time (mushroom TYR [4]) was 9.89 min and 9.89 ± 0.66 min and the Lag phase (mushroom TYR [4]) was 593 s.
In the case of `C=C(C)[C@@H]1CCC(C)=C[C@H]1c1c(OC)cc(CCCCC)c(/C=N/NC(N)=S)c1OC` [Compound 9, 3-thiosemicarbazone–CBD–dimethylether], the “kq (bimolecular quenching rate constant)” value (mushroom TYR [1]) is reported as 1.3e+12 M⁻¹ s⁻¹, the “ka (binding constant)” value (mushroom TYR [1]) is reported as 13100 M⁻¹ and the “Ksv (Stern–Volmer quenching constant)” value (mushroom TYR [1]) is reported as 13000 M⁻¹. It also gave an IC50 (mushroom TYR [2]) of 22.4 ± 2.9 µM, an FRAP value [5] of 431.5 ± 13.51 μM TE and an IC50 [3] of 316 ± 16 µM. For the same molecule, the Lag time (mushroom TYR [4]) was 6.67 min and 6.67 ± 0.17 min and the Lag phase (mushroom TYR [4]) was 400 s.
Work on `C=C(C)[C@@H]1CCC(C)=C[C@H]1c1c(O)cc(CCCCC)cc1O` [Compound 1, Cannabidiol] yielded an IC50 (mushroom TYR [2]) greater than 100 µM, an FRAP value [5] of 282.1 ± 5.68 μM TE and an IC50 [3] of 506.1 ± 4.67 µM.
With `C=C(C)[C@@H]1CCC(C)=C[C@H]1c1c(O)cc(CCCCC)c(/C=N/NC(N)=O)c1O` [Compound 3] the IC50 (mushroom TYR [2]) was greater than 100 µM and the “Inhibitory activity on TYR (in words)” value (mushroom TYR [2]) was “did not exhibit any inhibitory activity”.
With `C=C(C)[C@@H]1CCC(C)=C[C@H]1c1c(O)cc(CCCCC)c(/C=N/NC(=S)N(C)C)c1O` [Compound 7, 3-(4,4-dimethyl-3-thiosemicarbazone)–CBD–aldehyde] the “kq (bimolecular quenching rate constant)” value (mushroom TYR [1]) was 1.38e+12 M⁻¹ s⁻¹, the “ka (binding constant)” value (mushroom TYR [1]) was 5200 M⁻¹ and the “Ksv (Stern–Volmer quenching constant)” value (mushroom TYR [1]) was 13800 M⁻¹. The IC50 (mushroom TYR [2]) was 28.1 ± 1.82 µM, the FRAP value [5] was 981.9 ± 9.66 μM TE and the IC50 [3] was 116 ± 5.05 µM. For the same molecule, the Lag time (mushroom TYR [4]) was 6.19 min and 6.19 ± 0.27 min and the Lag phase (mushroom TYR [4]) was 371 s.
